Patent publication US10385024B2, “Compounds and methods for inhibiting NHE-mediated antiport in the treatment of disorders associated with fluid retention or salt overload and gastrointestinal tract disorders” (Ardelyx, Inc., priority 2012, dated 2019)

Assays:
[1] = target: T1, human NHE-3 (Homo sapiens, UniProt P48764); assay: Cell-based assay of NHE-3 activity (human NHE3 inhibition assay); conditions: OK cells with human NHE-3 gene, BCECF pH dye, 0-30 μM test compound; for IC50: read-out: Human NHE3 pIC50 (converted)
T1 construct: expressed in transfected cells; host or cells: Opossum kidney (OK) cells (ATCC), transfected by electroporation
T1 sequence (P48764 26-834): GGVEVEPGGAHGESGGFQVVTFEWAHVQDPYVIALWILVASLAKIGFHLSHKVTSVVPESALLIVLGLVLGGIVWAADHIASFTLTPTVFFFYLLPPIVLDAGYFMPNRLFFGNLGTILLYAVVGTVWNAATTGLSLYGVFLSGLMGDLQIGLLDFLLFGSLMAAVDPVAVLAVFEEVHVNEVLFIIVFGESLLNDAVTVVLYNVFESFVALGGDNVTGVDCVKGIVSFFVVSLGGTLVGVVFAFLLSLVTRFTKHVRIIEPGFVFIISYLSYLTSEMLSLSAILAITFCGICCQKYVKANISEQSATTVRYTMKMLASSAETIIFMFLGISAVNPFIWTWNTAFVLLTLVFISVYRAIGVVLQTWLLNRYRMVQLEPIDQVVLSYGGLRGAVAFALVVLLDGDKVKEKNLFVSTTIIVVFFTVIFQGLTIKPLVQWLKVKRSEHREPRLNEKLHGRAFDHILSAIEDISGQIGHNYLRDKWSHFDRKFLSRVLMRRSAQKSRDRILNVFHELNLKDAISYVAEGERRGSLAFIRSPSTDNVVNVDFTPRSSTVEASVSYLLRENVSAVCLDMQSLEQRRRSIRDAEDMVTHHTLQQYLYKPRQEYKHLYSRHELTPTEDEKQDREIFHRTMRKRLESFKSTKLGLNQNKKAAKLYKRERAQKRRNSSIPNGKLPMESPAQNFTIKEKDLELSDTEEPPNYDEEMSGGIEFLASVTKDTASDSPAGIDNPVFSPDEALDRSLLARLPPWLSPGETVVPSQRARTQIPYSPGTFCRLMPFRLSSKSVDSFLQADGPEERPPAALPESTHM
Method in brief: (§1)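 Opossum kidney cells electroporated with rat or human NHE-3, loaded with 5 μM BCECF-AM in NH4Cl-HEPES pH 7.4 for 30 min at RT, then acidified 10 min in Na+-free choline HEPES. Na+-dependent pH recovery rates from BCECF fluorescence, averaged over ≥2 replicates, gave pIC50.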

[2] = target: T2, Rat NHE-3 (Rattus norvegicus, UniProt P26433); assay: Cell-based assay of NHE-3 activity (rat NHE-3 prompt inhibition); conditions: OK cells with rat NHE-3 gene, compound present during pH recovery; for IC50: read-out: Rat NHE3 pIC50 (prompt) (converted)
T2 construct: expressed in transfected cells; host or cells: Opossum kidney (OK) cells (ATCC), transfected by electroporation
Method in brief: as §1

[3] = target: T2, Rat NHE-3; assay: Cell-based assay of NHE-3 activity (persistent inhibition, after washout); conditions: OK cells with rat NHE-3 gene, 60 min incubation, recovery initiated 40 min after compound washout; for IC50: read-out: Rat NHE3 pIC50 (persistent) (converted)
Method in brief: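 OK cells transiently expressing rat NHE-3 were exposed to 0-30 μM compound in NaCl-HEPES pH 7.4 for 60 min, then washed free of drug before NH4Cl/BCECF-AM loading and acid-loading in Na+-free choline buffer. Na+-dependent pH recovery rates (mean of ≥2 replicates) gave pIC50.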

[4] = test system: absorption of sodium from the intestinal lumen; assay: Inhibition of intestinal sodium absorption (urinary sodium and fecal form); format: in vivo, Sprague-Dawley rats; conditions: rat; for response vs control in vivo at 3 mg/kg: 3 mg/kg oral gavage, urine 16 h post-dose, asterisks = significance vs vehicle (*P<0.05, **P<0.01, ***P<0.001), read-out: uNa (% of vehicle); for FFS: fecal form score, scale 1 (normal pellet) to 5 (liquid fecal streams), group average, 3 mg/kg oral, 16 h post-dose, vehicle = 1
Method: Urinary sodium concentration and fecal form were measured to assess the ability of selected example compounds to inhibit the absorption of sodium from the intestinal lumen. Eight-week old Sprague-Dawley rats were purchased from Charles River Laboratories (Hollister, Calif.), were housed 2 per cage, and acclimated for at least 3 days before study initiation. Animals were fed Harlan Teklad Global 2018 rodent chow (Indianapolis, Ind.) and water ad libitum throughout the study and maintained in a standard light/dark cycle of 6 AM to 6 PM. On the day of the study, between 4 PM and 5 PM, a group of rats (n=6) were dosed via oral gavage with test compound at the dosage indicated or vehicle (water) at a volume of 10 mL/kg. After dose administration animals were placed in individual metabolic cages where they were also fed the same chow in meal form and watered ad libitum. At 16 h post-dose, the urine samples were collected and fecal form was assessed by two independent observations. Fecal forms were scored according to a common scale associated with increasing fecal water to the wettest observation in the cage's collection funnel (1, normal pellet; 2, pellet adhering to sides of collection funnel due to moisture; 3, loss of normal pellet shape; 4, complete loss of shape with a blotting pattern; 5, liquid fecal streams evident). A rat's fecal form score (FFS) was determined by averaging both observational scores for all rats within a group (n=6). In every study the vehicle group average was 1. For urine samples, the volumes were determined gravimetrically and centrifuged at 3,600×g. The supernatants were diluted 100-fold in deionized Milli-Q water then filtered through a 0.2 μm GHP Pall AcroPrep filter plate (Pall Life Sciences, Ann Arbor, Mich.) prior to analysis by ion chromatography. Ten microliters of each filtered extract was injected onto a Dionex ICS-3000 ion chromatograph system (Dionex, Sunnyvale, Calif.). Cations were separated by an isocratic method using 25 mM methanesulfonic acid as the eluent on an IonPac CS12A 2 mm i.d.×250 mm, 8 μm particle size cation exchange column (Dionex). Sodium was quantified using standards prepared from a cation standard mix containing Li^+, Na^+, NH4^+, K^+, Mg^2+, and Ca^2+ (Dionex). The mean mass of sodium urinated for every group in the 16 h period was determined with the vehicle group usually urinating approximately 21 mg sodium. The urine Na (uNa) for rats in the test groups were expressed as a percentage of the vehicle mean and the means were compared to that of the vehicle group by utilizing a one-way analysis of variance coupled with a Dunnett's post hoc test.

T2 sequence (P26433 29-831): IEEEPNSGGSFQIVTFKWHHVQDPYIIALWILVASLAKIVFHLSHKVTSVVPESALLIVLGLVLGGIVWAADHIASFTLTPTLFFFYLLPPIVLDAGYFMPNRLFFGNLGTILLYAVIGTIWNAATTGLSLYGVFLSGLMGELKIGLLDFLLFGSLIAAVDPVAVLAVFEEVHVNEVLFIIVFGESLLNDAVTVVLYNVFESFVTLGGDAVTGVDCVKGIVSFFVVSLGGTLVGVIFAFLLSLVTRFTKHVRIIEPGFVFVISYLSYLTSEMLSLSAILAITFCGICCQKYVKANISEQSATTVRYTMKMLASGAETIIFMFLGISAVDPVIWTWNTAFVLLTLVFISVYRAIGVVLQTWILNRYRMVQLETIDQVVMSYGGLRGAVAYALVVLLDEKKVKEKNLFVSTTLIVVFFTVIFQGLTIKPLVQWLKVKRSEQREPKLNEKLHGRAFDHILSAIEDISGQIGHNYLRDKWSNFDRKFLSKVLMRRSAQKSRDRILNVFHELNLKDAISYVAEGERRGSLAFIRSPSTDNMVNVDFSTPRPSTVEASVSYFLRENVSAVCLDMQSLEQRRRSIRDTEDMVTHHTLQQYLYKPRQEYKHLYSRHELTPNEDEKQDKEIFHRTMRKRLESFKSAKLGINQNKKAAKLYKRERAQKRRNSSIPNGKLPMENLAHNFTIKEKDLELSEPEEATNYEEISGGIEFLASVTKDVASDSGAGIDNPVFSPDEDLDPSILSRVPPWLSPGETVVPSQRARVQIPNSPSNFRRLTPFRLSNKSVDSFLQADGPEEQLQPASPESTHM

Row | SMILES | Human NHE3 pIC50 [1] | Rat NHE3 pIC50 (prompt) [2] | Rat NHE3 pIC50 (persistent) [3] | IC50 [1] | IC50 [2] | IC50 [3] | response vs control in vivo at 3 mg/kg [4] | FFS [4]
1 | CN1Cc2c(Cl)cc(Cl)cc2[C@H](c2cccc(S(=O)(=O)NCCOCCOCCNC(=O)NCCN(CCNC(=O)NCCOCCOCCNS(=O)(=O)c3cccc([C@@H]4CN(C)Cc5c(Cl)cc(Cl)cc54)c3)CCNC(=O)NCCOCCOCCNS(=O)(=O)c3cccc([C@@H]4CN(C)Cc5c(Cl)cc(Cl)cc54)c3)c2)C1 [Example 53] | B (B NHE3 pIC50 5-7) | B (B NHE3 pIC50 5-7) | C (C NHE3 pIC50 > 7) |  |  |  | 35 to 75% | 
2 | CN1Cc2c(Cl)cc(Cl)cc2[C@H](c2cccc(S(=O)(=O)NCCOCCOCCOCCNC(=O)CCC(N)(CCC(=O)NCCOCCOCCOCCNS(=O)(=O)c3cccc([C@@H]4CN(C)Cc5c(Cl)cc(Cl)cc54)c3)CCC(=O)NCCOCCOCCOCCNS(=O)(=O)c3cccc([C@@H]4CN(C)Cc5c(Cl)cc(Cl)cc54)c3)c2)C1 [Example 9, 4-amino-4-(1-(3-((S)-6,8-dichloro-2-methyl-1,2,3,4-tetrahydroisoquinolin-4-yl)phenylsulfonamido)-13-oxo-3,6,9-trioxa-12-azapentadecan-15-yl)-N^1,N^7-bis(2-(2-(2-(2-(3-((S)-6,8-dichloro-2-methyl-1,2,3,4-tetrahydroisoquinolin-4-yl)phenylsulfonamido)ethoxy)ethoxy)ethoxy)ethyl)heptanediamide] |  |  |  | < 100 nM | < 100 nM | < 100 nM | < 35% | 
3 | CN1Cc2c(Cl)cc(Cl)cc2[C@H](c2cccc(S(=O)(=O)NCCOCCOCCNC(=O)CCC(CCC(=O)NCCOCCOCCNS(=O)(=O)c3cccc([C@@H]4CN(C)Cc5c(Cl)cc(Cl)cc54)c3)(CCC(=O)NCCOCCOCCNS(=O)(=O)c3cccc([C@@H]4CN(C)Cc5c(Cl)cc(Cl)cc54)c3)NC(=O)N[C@@H](CC(=O)O)C(=O)O)c2)C1 [Example 12, (S)-2-(3-(1,25-bis(3-((S)-6,8-dichloro-2-methyl-1,2,3,4-tetrahydroisoquinolin-4-yl)phenylsulfonamido)-13-(3-(2-(2-(2-(3-((S)-6,8-dichloro-2-methyl-1,2,3,4-tetrahydroisoquinolin-4-yl)phenylsulfonamido)ethoxy)ethoxy)ethylamino)-3-oxopropyl)-10,16-dioxo-3,6,20,23-tetraoxa-9,17-diazapentacosan-13-yl)ureido)succinic acid] |  |  |  | < 100 nM | < 100 nM | < 100 nM | 35 to 75% | 3
4 | CN1CCN(C(=O)NC(CCC(=O)NCCOCCOCCNS(=O)(=O)c2cccc([C@@H]3CN(C)Cc4c(Cl)cc(Cl)cc43)c2)(CCC(=O)NCCOCCOCCNS(=O)(=O)c2cccc([C@@H]3CN(C)Cc4c(Cl)cc(Cl)cc43)c2)CCC(=O)NCCOCCOCCNS(=O)(=O)c2cccc([C@@H]3CN(C)Cc4c(Cl)cc(Cl)cc43)c2)CC1 [Example 41] | C (C NHE3 pIC50 > 7) | B (B NHE3 pIC50 5-7) | C (C NHE3 pIC50 > 7) |  |  |  | < 35% | 
5 | CN1Cc2c(Cl)cc(Cl)cc2[C@H](c2cccc(S(=O)(=O)NCCOCCOCCNC(=O)CCC(CCC(=O)NCCOCCOCCNS(=O)(=O)c3cccc([C@@H]4CN(C)Cc5c(Cl)cc(Cl)cc54)c3)(CCC(=O)NCCOCCOCCNS(=O)(=O)c3cccc([C@@H]4CN(C)Cc5c(Cl)cc(Cl)cc54)c3)NC(=O)Cn3ccnc3)c2)C1 [Example 30] | B (B NHE3 pIC50 5-7) | B (B NHE3 pIC50 5-7) | C (C NHE3 pIC50 > 7) |  |  |  | > 75% | 
6 | CC(O)C(NC(=O)NC(CCC(=O)NCCOCCOCCNS(=O)(=O)c1cccc(C2CN(C)Cc3c(Cl)cc(Cl)cc32)c1)(CCC(=O)NCCOCCOCCNS(=O)(=O)c1cccc(C2CN(C)Cc3c(Cl)cc(Cl)cc32)c1)CCC(=O)NCCOCCOCCNS(=O)(=O)c1cccc(C2CN(C)Cc3c(Cl)cc(Cl)cc32)c1)C(N)=O (centres unmarked) [Example 31] | C (C NHE3 pIC50 > 7) | C (C NHE3 pIC50 > 7) | C (C NHE3 pIC50 > 7) |  |  |  | < 35% | 

Further lines, with some results ahead:

Row | Human NHE3 pIC50 [1] | Rat NHE3 pIC50 (prompt) [2] | Rat NHE3 pIC50 (persistent) [3] | IC50 [1] | IC50 [2] | IC50 [3] | SMILES | response vs control in vivo at 3 mg/kg [4] | FFS [4]
7 | C (C NHE3 pIC50 > 7) | B (B NHE3 pIC50 5-7) | C (C NHE3 pIC50 > 7) |  |  |  | CN1Cc2c(Cl)cc(Cl)cc2[C@H](c2cccc(S(=O)(=O)N(C)CCOCCOCCNC(=O)NCCCN(CCCNC(=O)NCCOCCOCCN(C)S(=O)(=O)c3cccc([C@@H]4CN(C)Cc5c(Cl)cc(Cl)cc54)c3)CCCNC(=O)NCCOCCOCCN(C)S(=O)(=O)c3cccc([C@@H]4CN(C)Cc5c(Cl)cc(Cl)cc54)c3)c2)C1 [Example 54] | > 75% | 
8 | C (C NHE3 pIC50 > 7) | C (C NHE3 pIC50 > 7) | C (C NHE3 pIC50 > 7) |  |  |  | CN1Cc2c(Cl)cc(Cl)cc2[C@H](c2cccc(S(=O)(=O)NCCOCCOCCN(C)C(=O)CCC(CCC(=O)N(C)CCOCCOCCNS(=O)(=O)c3cccc([C@@H]4CN(C)Cc5c(Cl)cc(Cl)cc54)c3)(CCC(=O)N(C)CCOCCOCCNS(=O)(=O)c3cccc([C@@H]4CN(C)Cc5c(Cl)cc(Cl)cc54)c3)NC(=O)COCC(=O)O)c2)C1 [Example 70] | 35 to 75% | 2
9 | C (C NHE3 pIC50 > 7) | C (C NHE3 pIC50 > 7) | C (C NHE3 pIC50 > 7) |  |  |  | CN1Cc2c(Cl)cc(Cl)cc2[C@H](c2cccc(S(=O)(=O)N(CCO)CCOCCOCCNC(=O)NCCCN(CCCNC(=O)NCCOCCOCCN(CCO)S(=O)(=O)c3cccc([C@@H]4CN(C)Cc5c(Cl)cc(Cl)cc54)c3)CCCNC(=O)NCCOCCOCCN(CCO)S(=O)(=O)c3cccc([C@@H]4CN(C)Cc5c(Cl)cc(Cl)cc54)c3)c2)C1 [Example 56] | 35 to 75% | 
